Calls of active or inactive are those of the source.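 The calls were made as follows: active = inhibition zone diameter above 0 mm; inactive = zone diameter of 0 mm or less.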
Tested on: Candida albicans ATCC 90028, disc diffusion zone, 24 h
Test: antifungal activity against C. albicans – disc diffusion, zone diameter, TPT1 inhibitor project, late-stage follow-up (AID 434975)
Settings: at 10 mM; hits give high values

NC(=O)c1cc[n+](CC2=C(C(=O)O)N3C(=O)[C@@H](NC(=O)C(c4ccccc4)S(=O)(=O)O)[C@H]3SC2)cc1 (stereo partly drawn)
inhibition zone diameter: 0 mm (inactive)

OC(Cn1cncn1)(Cn1cncn1)c1ccc(F)cc1F
inhibition zone diameter: 38 mm

Cc1cc(C)n(Cc2ccc(C(=O)NN=Cc3ccc(-c4ccc([N+](=O)[O-])cc4)o3)o2)n1
inhibition zone diameter: 0 mm (inactive)

Cc1ccc(N2C(=O)NC(=O)/C(=C\c3ccc([N+](=O)[O-])o3)C2=O)cc1
inhibition zone diameter: 12.6 mm

CC1=C(C#N)C(=O)N(C2CCS(=O)(=O)C2)C(=O)/C1=C\c1ccco1 (stereo not drawn)
inhibition zone diameter: 0 mm (inactive)

Cc1ccccc1N1C(=O)/C(=C/c2ccco2)C(=O)NC1=S
inhibition zone diameter: 0 mm (inactive)

COc1ccc(OC)c(N2C(=O)/C(=C/c3ccco3)C(=O)NC2=S)c1
inhibition zone diameter: 0 mm (inactive)

O=c1oc2c(O)c(O)cc3c(=O)oc4c(O)c(O)cc1c4c23
inhibition zone diameter: 0 mm (inactive)

— PubChem BioAssay AID434975 (The Scripps Research Institute Molecular Screening Center, 2010)
